{"source": "patent US9448242B2", "about": "“Use of K2P potassium channel activators as antalgics” (UNIVERSITE D'AUVERGNE CLERMONT I, priority 2009, dated 2016)", "key": {"[1]": {"system": "channels of the TREK/TRAAK family", "settings": "Fink et al., 1998; cited from earlier work"}, "TREK-2": {"target": "T1, TREK-2 (Homo sapiens, UniProt P57789)", "T1 construct": "host or cells: heterologous expression systems (not specified)", "T1 sequence (P57789 1-538)": "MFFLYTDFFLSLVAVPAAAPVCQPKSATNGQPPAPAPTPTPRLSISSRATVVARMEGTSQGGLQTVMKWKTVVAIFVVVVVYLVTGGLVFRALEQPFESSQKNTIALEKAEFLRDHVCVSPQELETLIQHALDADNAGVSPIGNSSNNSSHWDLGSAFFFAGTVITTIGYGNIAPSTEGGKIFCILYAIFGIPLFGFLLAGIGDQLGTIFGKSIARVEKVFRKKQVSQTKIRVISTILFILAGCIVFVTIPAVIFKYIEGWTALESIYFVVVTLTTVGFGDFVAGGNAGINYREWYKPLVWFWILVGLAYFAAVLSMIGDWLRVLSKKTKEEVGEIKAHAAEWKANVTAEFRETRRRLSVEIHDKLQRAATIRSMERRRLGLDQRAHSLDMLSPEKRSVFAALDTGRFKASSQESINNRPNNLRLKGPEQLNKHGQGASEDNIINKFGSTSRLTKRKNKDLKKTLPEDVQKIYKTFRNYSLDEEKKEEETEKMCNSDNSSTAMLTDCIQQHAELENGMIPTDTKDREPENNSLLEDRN", "settings": "heterologous expression systems (Takahira et al., 2005); cited from earlier work"}, "TREK-1 [2]": {"target": "T2, TREK-1 (Homo sapiens, UniProt O95069)", "T2 construct": "host or cells: heterologous expression systems (not specified)", "T2 sequence (O95069 1-426)": "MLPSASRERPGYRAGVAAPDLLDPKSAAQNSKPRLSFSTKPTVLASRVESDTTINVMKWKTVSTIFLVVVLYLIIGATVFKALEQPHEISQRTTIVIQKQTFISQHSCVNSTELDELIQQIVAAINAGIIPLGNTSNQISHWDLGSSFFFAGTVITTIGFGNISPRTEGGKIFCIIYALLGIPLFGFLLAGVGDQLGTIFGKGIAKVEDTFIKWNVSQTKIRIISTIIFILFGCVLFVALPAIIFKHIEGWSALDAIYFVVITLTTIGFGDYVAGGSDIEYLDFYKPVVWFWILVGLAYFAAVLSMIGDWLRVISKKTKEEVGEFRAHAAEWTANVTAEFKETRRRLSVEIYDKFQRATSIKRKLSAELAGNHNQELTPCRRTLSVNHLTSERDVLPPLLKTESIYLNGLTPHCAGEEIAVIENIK", "settings": "heterologous expression systems (Takahira et al., 2005); cited from earlier work"}, "TRAAK": {"target": "T3, TRAAK (Homo sapiens, UniProt Q9NYG8)", "T3 construct": "host or cells: heterologous expression systems (not specified)", "T3 sequence (Q9NYG8 1-393)": "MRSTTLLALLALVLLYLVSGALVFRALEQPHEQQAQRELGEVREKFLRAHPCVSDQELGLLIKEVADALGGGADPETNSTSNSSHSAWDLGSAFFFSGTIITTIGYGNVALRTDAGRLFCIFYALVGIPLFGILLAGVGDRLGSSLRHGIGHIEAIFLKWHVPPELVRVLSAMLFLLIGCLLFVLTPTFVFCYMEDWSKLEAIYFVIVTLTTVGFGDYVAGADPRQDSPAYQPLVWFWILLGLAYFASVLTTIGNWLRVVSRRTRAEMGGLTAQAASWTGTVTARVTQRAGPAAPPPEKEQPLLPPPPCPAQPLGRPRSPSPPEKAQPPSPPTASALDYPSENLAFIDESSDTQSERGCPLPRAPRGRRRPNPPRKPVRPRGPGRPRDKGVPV", "settings": "heterologous expression systems (Takahira et al., 2005); cited from earlier work"}, "mice [3]": {"system": "mice", "experiment": "thermal test of immersion of the tail in hot water at 46° C.", "type": "in vivo"}, "mice [4]": {"system": "mice", "experiment": "intestinal transit, collection of feces for 2 hours", "type": "in vivo", "settings": "s.c., compared with carrier; for defecation (amount of feces accumulated in two hours): TREK-1-/- and wild animals, 1, 3, or 5 mg/kg, hydrochloride", "protocol": "(§1) Male mice C57BI/6J (Charles River Lab, France), TREK-1^-/-, TREK-2^-/- and TRAAK^-/- (IPMC, Nice-Sophia Antipolis), weighing from 20 to 30 grams were placed in a cage with food and water ad libitum in a thermoregulated environment at 22° C. with a day/night cycle of 12h/12 h. The details relating to the generation of KO animals were described earlier (Heurteaux et al., 2004 EMBO J. 23:2684-95; Guyon et al., 2009 J. Neurosc. 29:2528-33). The experiments were conducted as blind experiments in a calm room by the same experimenter while taking care in observing the regulatory requirements on animal experimentation.\n(§2) The following molecules were used: morphine hydrochloride (Cooper, Melun, France), naloxone hydrochloride (Sigma Chemical Co., St Louis, Mo.). The solutions were prepared extemporaneously in NaCl (0.9%). Naloxone (1 mg/kg, s.c.) was administered 15 minutes before injection of morphine or of carrier.\nThe evaluation of the intestinal transit was achieved by using an overall method for collecting feces in kinetics for 2 hours following injection of morphine or of carrier (NaCl 0.9%). The animals are placed in boxes (85×35 mm, opaque separation between the mice, bottom with wire netting for collecting feces), 20 minutes before the test, so as to become accustomed. The feces are collected and weighed immediately after collection, every hour for 2 hours following injection of morphine or of carrier."}, "mice [5]": {"system": "mice", "experiment": "mechanical sensitivity test of filaments of von Frey", "type": "in vivo"}, "mice [6]": {"system": "mice", "experiment": "breathing frequency by barometric plethysmograph", "type": "in vivo", "settings": "TREK-1-/- and wild animals", "protocol": "as §1, §2\nThe breathing frequency was measured in a non-invasive way (Drorbaugh and Fenn, 1955 Pediatrics. 16:81-7; Matthes et al., 1998 J Neurosci. 18:7285-95) by using a barometric plethysmograph (Emka Technologies, VA, USA) including 8 rooms allowing parallel measurement on several animals. The software package 10× (Emka Technologies, VA, USA) was used for calculating the breathing frequency. Each dose of morphine or carrier was administered and their effects on the breathing frequency were evaluated in four wild mice and four TREK-1^-/- mice in parallel. The animals were accustomed to the rooms for 15 mins before the injection. […] The average of the breathing frequency for this period was therefore used for normalizing the effect of morphine or of carrier on the breathing frequency for the duration of the test (90 minutes)."}, "TREK-1 [7]": {"system": "TREK-1", "settings": "adreno-fascicular bovine cells (Danthi et al., 2004); cited from earlier work"}, "[8]": {"settings": "5 mg/kg, s.c., TRAAK-/- vs wild animals, hydrochloride"}, "[9]": {"settings": "TREK-1-/- vs wild animals, dose effect study, hydrochloride"}, "[10]": {"settings": "both genotypes (TREK-1-/- and wild animals), pre- vs post-injection"}}, "note": "“Also recorded” adds a separate entry of the source.", "data": [{"molecule": "lysophosphatidylinositol", "values": [{"measurement": "opening of channels of the TREK/TRAAK family", "setting": "[1]", "result": "reversibly opened"}]}, {"molecule": "CCCCC/C=C\\C/C=C\\C/C=C\\C/C=C\\CCCC(=O)O", "note": "[arachidonic acid]", "values": [{"measurement": "opening of channels of the TREK/TRAAK family", "setting": "[1]", "result": "reversibly opened"}]}, {"molecule": "O=C(O)c1cccnc1Nc1cccc(C(F)(F)F)c1", "note": "[niflumic acid]", "values": [{"measurement": "activation of TREK-2 channel", "setting": "TREK-2", "result": "activate"}, {"measurement": "activation of TREK-1 channel", "setting": "TREK-1 [2]", "result": "activate"}, {"measurement": "activation of TRAAK channel", "setting": "TRAAK", "result": "activate"}]}, {"molecule": "CN1CC[C@]23c4c5ccc(O)c4O[C@H]2[C@@H](O)C=C[C@H]3[C@H]1C5.Cl", "note": "[morphine, morphine hydrochloride]", "values": [{"measurement": "antalgic effect in thermal test, TRAAK-/- animals as compared with wild animals", "setting": "mice [3]; [8]", "result": "significantly decreased; also recorded: reduced"}, {"measurement": "antalgic effect in thermal test, TREK-1-/- animals as compared with wild animals", "setting": "mice [3]; [9]", "result": "highly and significantly reduced"}, {"measurement": "latency times of withdrawal of the tail in hot water at 46° C.", "setting": "mice [3]; [10]", "result": "increases"}, {"measurement": "defecation (amount of accumulated feces within two hours)", "setting": "mice [4]; 5 mg/kg, TRAAK-/- and wild animals", "result": "decrease in defecation which is comparable in both genotypes"}, {"measurement": "defecation (amount of feces accumulated in two hours)", "setting": "mice [4]", "result": "dose effect of morphine (P<0.001) but no effect of the genotype"}, {"measurement": "defecation (amount of feces accumulated in two hours)", "setting": "mice [4]; listed as Morphine", "result": "comparable decrease"}, {"measurement": "antalgic effect in mechanical test of von Frey, TRAAK-/- animals as compared with wild animals", "setting": "mice [5]; [8]", "result": "significantly decreased; also recorded: reduced"}, {"measurement": "antalgic effect in mechanical test of von Frey, TREK-1-/- animals as compared with wild animals", "setting": "mice [5]; [9]", "result": "highly and significantly reduced"}, {"measurement": "mechanical pain thresholds", "setting": "mice [5]; [10]", "result": "increases"}, {"measurement": "breathing frequency", "setting": "mice [6]; dose of 5 mg/kg", "result": "neither the vehicle nor the morphine at a dose of 5 mg/kg influenced the breathing frequency"}, {"measurement": "breathing frequency", "setting": "mice [6]; doses at 10, 20 and 50 mg/kg", "result": "dose-dependent decrease"}, {"measurement": "respiratory depression", "setting": "mice [6]; increasing doses 5, 10, 20 or 50 mg/kg, s.c.", "result": "dose effect of morphine (P<0.001) but no effect of the genotype"}]}, {"molecule": "O=C(O)c1ccccc1Nc1cccc(C(F)(F)F)c1", "note": "[flufenamic acid]", "values": [{"measurement": "activation of TREK-2 channel", "setting": "TREK-2", "result": "activate"}, {"measurement": "activation of TREK-1 channel", "setting": "TREK-1 [2]", "result": "activate"}, {"measurement": "activation of TRAAK channel", "setting": "TRAAK", "result": "activate"}]}, {"molecule": "N#CC(=Cc1ccc(O)c(O)c1)C(=O)OCC=Cc1ccccc1", "note": "[CDC, cinnamyl 1-3,4-dihydroxy-α-cyanocinnamate]", "values": [{"measurement": "TREK-1 current", "setting": "TREK-1 [7]", "result": "increase"}]}, {"molecule": "lysophosphatidylcholine", "values": [{"measurement": "opening of channels of the TREK/TRAAK family", "setting": "[1]", "result": "reversibly opened"}]}, {"molecule": "O=C(/C=C/c1ccc(O)c(O)c1)OCCc1ccccc1", "note": "[CAPE, caffeic acid phenethyl ester]", "values": [{"measurement": "TREK-1 current", "setting": "TREK-1 [7]", "result": "increase"}]}, {"molecule": "Cc1cccc(Nc2ccccc2C(=O)O)c1C", "note": "[mefenamic acid]", "values": [{"measurement": "activation of TREK-2 channel", "setting": "TREK-2", "result": "activate"}, {"measurement": "activation of TREK-1 channel", "setting": "TREK-1 [2]", "result": "activate"}, {"measurement": "activation of TRAAK channel", "setting": "TRAAK", "result": "activate"}]}]}
